US20040063745A1, “2-amino-4-(pyridin-2-yl)-thiazole derivatives as transforming growth factor beta (tgf-beta) inhibitors” (priority 2001, published 2004)
pIC50: −log10 of the molar value.

System: TAG-β signalling (PAI-1 promoter, HepG2 cells)
Assay: Assay 1: PAI-1 promoter luciferase reporter assay in HepG2 cells exposed to TAG-β
Assay type: cell-based
Conditions: for pIC50: Homo sapiens, HepG2
Experimental: The assay was performed in HepG2 cells stably transfected with the PAI-1 promoter (known to be a strong TAG-β responsive promoter) linked to a luciferase (firefly) reporter gene. The compounds were selected on their ability to inhibit luciferase activity in cells exposed to TAG-β. In addition cells were transfected with a second luciferase (Renilla) gene which was not driven by a TAG-β responsive promoter and was used as a toxicity control.
(96 well-)microplates are seeded, using a multidrop apparatus, with the stably transfected cell line at a concentration of 35000 cells per well in 200 μl of serum-containing medium. These plates are placed in a cell incubator.
18 to 24 hours later (Day 2), cell-incubation procedure is launched. Cells are incubated with TAG-β and a candidate compound (TAG-β inhibitor) at concentrations in the range 50 nM to 10 μM (final concentration of DMSO 1%). The final concentration of TAG-β(rhTGFβ-1) used in the test is 1 ng/mL. Cells are incubated with a candidate compound 15-30 mins prior to the addition of TAGβ. The final volume of the test reaction is 150 μl. Each well contains only one candidate compound and its effect on the PAI-1 promoter is monitored.
Columns 11 and 12 are employed as controls. Column 11 contains 8 wells in which the cells are incubated in the presence of TAGβ, without a candidate compound. Column 11 is used to determine the ‘reference TAG-β induced firefly luciferase value’ against which values measured in the test wells (to quantify inhibitory activity) may be compared. In wells A12 to D12, cells are grown in medium without TAG-β. The firefly luciferase values obtained from these positions are representive of the ‘basal firefly luciferase activity’. In wells E12 to H12, cells are incubated in the presence of TAG-β and 500 μM CPO (Cyclopentenone, Sigma), a cell toxic compound.
12 to 18 hours later (day 3), the luciferase quantification procedure is launched. The following reactions are performed using reagents obtained from a Dual Luciferase Assay Kit (Promega). Cells are washed and lysed with the addition of 10 μl of passive lysis buffer (Promega). Following agitation (15 to 30 mins), luciferase activities of the plates are read in a dual-injector luminometer (BMG lumistar). For this purpose, 50 μl of luciferase assay reagent and 50 μl of ‘Stop & Glo’ buffer are injected sequentially to quantify the activities of both luciferases. The mean Luciferase activity value obtained in wells A11 to H11 (Column 11, TAG-β only) is considered to represent 100% and values obtained in wells A12 to D12 (cells in medium alone) gives a basal level (0%). For each of the compounds tested, a concentration response curve is constructed from which an IC50 value can be determined graphically.

Q: `O=C1C=CCC1` [CPO, Cyclopentenone, reference compound] was tested. Which “firefly and renilla luciferase activities relative to column 11 (TAG-β only)” value (500 μM CPO with TAG-β, toxicity control wells E12 to H12) did it give?
A: around 50%

Q: How did the pIC50 turn out when `Nc1nc(-c2ccccn2)c(-c2ccnc3ccccc23)s1` [Example 1, 4-(Pyridin-2-yl)-5-quinolin-4-yl-1,3-thiazol-2-amine] was run?
A: ≥ 5.30

Q: With `Nc1nc(-c2ccccn2)c(-c2ccc3ncccc3n2)s1` [Example 2, 5-([1,5]Naphthyridin-2-yl)4-pyridin-2-yl-1,3-thiazol-2-amine] as the compound, how does the pIC50 read?
A: ≥ 5.30

Q: `Cc1cccc(-c2nc(N)sc2-c2ccc3ncccc3n2)n1` [Example 3, 4-(6-Methyl-pyridin-2-yl)-5-([1,5]naphthyridin-2-yl)-1,3-thiazol-2-amine] was tested. Which pIC50 did it give?
A: ≥ 5.30
